Data taken from the supplement of paper PMC10307832.

Key:
Test in all cases: relative viability (nuclei count vs DMSO), 5 days (fraction); higher = more cells survive
Obatoclax + Lapatinib = compound: COC1=CC(c2cc3ccccc3[nH]2)=N/C1=C\c1[nH]c(C)cc1C [Obatoclax] + CS(=O)(=O)CCNCc1ccc(-c2ccc3ncnc(Nc4ccc(OCc5cccc(F)c5)c(Cl)c4)c3c2)o1 [Lapatinib] (partner 2 µM)
Summary of the method: (§1)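 Relative viability divides the nuclei count in treated wells by that in vehicle wells. Lung cancer cell lines were seeded in 1536-well plates, dosed by pin tool the next day, and fixed and stained after 5 days in one step with final 0.05% Triton X-100, 1% formaldehyde and 1 ug/ml Hoechst. Dosing was a single drug or a fixed anchor-drug dose plus five library-drug doses (not always all listed) in √10 steps, and values are medians of duplicate plates imaged at 4×.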

Obatoclax + Bortezomib = compound: COC1=CC(c2cc3ccccc3[nH]2)=N/C1=C\c1[nH]c(C)cc1C [Obatoclax] + CC(C)C[C@H](NC(=O)[C@H](Cc1ccccc1)NC(=O)c1cnccn1)B(O)O [Bortezomib] (partner 0.002 µM)
Summary of the method: as §1

[1] = compound: CC1=CC(=NN1)NC2=CC(=NC(=N2)/C=C/C3=CC=CC=C3)N4CCN(CC4)C + CC(=O)c1c(C)c2cnc(Nc3ccc(N4CCNCC4)cn3)nc2n(C2CCCC2)c1=O [Palbociclib] (partner 0.5 µM)
Summary of the method: as §1

[2] = compound: CC1=CC(=NN1)NC2=CC(=NC(=N2)/C=C/C3=CC=CC=C3)N4CCN(CC4)C + O=C(CCCCCCC(=O)Nc1ccccc1)NO [Vorinostat] (partner 1 µM)
Summary of the method: as §1

Cell Line	relative viability (Obatoclax + Lapatinib; first compound 0.01 µM)	relative viability (Obatoclax + Lapatinib; first compound 0.03162 µM)	relative viability (Obatoclax + Lapatinib; first compound 0.1 µM)	relative viability (Obatoclax + Lapatinib; first compound 0.3162 µM)	relative viability (Obatoclax + Lapatinib; first compound 1 µM)	relative viability (Obatoclax + Bortezomib; first compound 0.01 µM)	relative viability (Obatoclax + Bortezomib; first compound 0.03162 µM)	relative viability (Obatoclax + Bortezomib; first compound 0.1 µM)	relative viability (Obatoclax + Bortezomib; first compound 0.3162 µM)	relative viability (Obatoclax + Bortezomib; first compound 1 µM)	relative viability ([1]; first compound 0.08 µM)	relative viability ([1]; first compound 0.253 µM)	relative viability ([1]; first compound 0.8 µM)	relative viability ([1]; first compound 2.53 µM)	relative viability ([1]; first compound 8 µM)	relative viability ([2]; first compound 0.08 µM)	relative viability ([2]; first compound 0.253 µM)	relative viability ([2]; first compound 0.8 µM)	relative viability ([2]; first compound 2.53 µM)	relative viability ([2]; first compound 8 µM)
A549	0.933	1.1	0.997	0.966	0.125	–	–	–	–	–	–	–	–	–	–	–	–	–	–	–
Calu-6	1.03	1.09	1.04	0.842	0.244	1.03	1.02	0.979	0.955	0.191	–	–	–	–	–	–	–	–	–	–
ChaGo-K-1	–	–	–	–	–	1.11	0.949	–	0.968	1.23	0.756	0.952	0.933	0.378	0.17	0.799	0.8	0.613	0.343	0.186
EBC-1	0.204	0.213	0.227	0.182	0.189	0.637	0.602	0.481	0.341	0.232	–	–	–	–	–	–	–	–	–	–
IA-LM	0.631	0.872	0.454	0.135	0.114	0.838	0.723	0.727	0.0591	0.0714	–	–	–	–	–	1.02	1.12	0.874	0.887	0.332
LCLC-103H	–	–	–	–	–	1.01	1	0.992	1.07	1.05	0.44	0.438	0.491	0.422	0.349	0.824	0.69	0.779	0.582	0.294
LK-2	0.994	0.838	0.915	0.886	0.805	–	–	–	–	–	0.61	0.691	0.547	0.33	0.0792	0.254	0.155	0.283	0.223	0.126
NCI-H358	0.482	0.33	0.598	0.336	0.208	–	–	–	–	–	0.12	0.144	0.133	0.0673	0.072	0.587	0.756	0.178	0.116	0.0712
NCI-H441	–	–	–	–	–	0.378	0.498	0.413	0.291	0.22	0.169	0.214	0.203	0.115	0.103	0.569	0.768	0.58	0.498	0.138
NCI-H522	–	–	–	–	–	–	–	–	–	–	1.04	1.19	1.31	0.726	0.357	0.894	0.93	1.12	0.854	0.426
NCI-H596	0.941	0.951	0.827	0.643	0.503	1.12	0.974	0.812	0.696	0.674	–	–	–	–	–	0.557	0.633	0.577	0.42	0.139
